According to the CheMixHub viscosity set:
± gives the uncertainty stated by the source.

Assay: xn = mol fraction of the nth substance listed

c1ccccc1 + CCCCCCC
Details	viscosity [mPa·s]
294.15 K, 101 kPa, x1 = 0.6	0.4728 ± 0.013
295.15 K, 101 kPa, x1 = 0.3	0.427 ± 0.011
298 K, 101 kPa, x1 = 0.5	0.4167 ± 0.011
298 K, 101.33 kPa, x1 = 0.1007	0.3923 ± 0.015
298 K, 101.33 kPa, x1 = 0.1109	0.3913 ± 0.015
298 K, 101.33 kPa, x1 = 0.1922	0.4003 ± 0.016
298 K, 101.33 kPa, x1 = 0.276	0.4019 ± 0.016
298 K, 101.33 kPa, x1 = 0.2915	0.4023 ± 0.016
298 K, 101.33 kPa, x1 = 0.3953	0.4142 ± 0.016
298 K, 101.33 kPa, x1 = 0.4839	0.4157 ± 0.016
298 K, 101.33 kPa, x1 = 0.5204	0.4382 ± 0.017
298 K, 101.33 kPa, x1 = 0.6729	0.4487 ± 0.017
298 K, 101.33 kPa, x1 = 0.6893	0.5006 ± 0.05
298 K, 101.33 kPa, x1 = 0.6967	0.4544 ± 0.017
298 K, 101.33 kPa, x1 = 0.8532	0.5208 ± 0.019
298 K, 101.33 kPa, x1 = 0.9152	0.5442 ± 0.02
298.15 K, 101 kPa, x2 = 0.1025	0.53 ± 0.006
298.15 K, 101 kPa, x2 = 0.2002	0.491 ± 0.005
298.15 K, 101 kPa, x2 = 0.2919	0.46 ± 0.005
298.15 K, 101 kPa, x2 = 0.4003	0.429 ± 0.005
298.15 K, 101 kPa, x2 = 0.5192	0.41 ± 0.004
298.15 K, 101 kPa, x2 = 0.6209	0.401 ± 0.004
298.15 K, 101 kPa, x2 = 0.7084	0.392 ± 0.004
298.15 K, 101 kPa, x2 = 0.7893	0.388 ± 0.004
298.15 K, 101 kPa, x2 = 0.9165	0.386 ± 0.004
298.15 K, 101.33 kPa, x2 = 0.095	0.532 ± 0.004
298.15 K, 101.33 kPa, x2 = 0.1973	0.485 ± 0.004
298.15 K, 101.33 kPa, x2 = 0.2999	0.455 ± 0.004
298.15 K, 101.33 kPa, x2 = 0.3741	0.439 ± 0.004
298.15 K, 101.33 kPa, x2 = 0.3984	0.431 ± 0.003
298.15 K, 101.33 kPa, x2 = 0.4961	0.414 ± 0.003
298.15 K, 101.33 kPa, x2 = 0.5995	0.403 ± 0.003
298.15 K, 101.33 kPa, x2 = 0.6762	0.397 ± 0.003
298.15 K, 101.33 kPa, x2 = 0.7309	0.395 ± 0.003
298.15 K, 101.33 kPa, x2 = 0.7987	0.391 ± 0.004
298.15 K, 101.33 kPa, x2 = 0.8933	0.389 ± 0.004
308.15 K, 101 kPa, x2 = 0.1025	0.47 ± 0.005
308.15 K, 101 kPa, x2 = 0.2002	0.44 ± 0.005
308.15 K, 101 kPa, x2 = 0.2919	0.412 ± 0.005
308.15 K, 101 kPa, x2 = 0.4003	0.388 ± 0.004
308.15 K, 101 kPa, x2 = 0.5192	0.37 ± 0.004
308.15 K, 101 kPa, x2 = 0.6209	0.36 ± 0.004
308.15 K, 101 kPa, x2 = 0.7084	0.355 ± 0.004
308.15 K, 101 kPa, x2 = 0.7893	0.351 ± 0.004
308.15 K, 101 kPa, x2 = 0.9165	0.349 ± 0.004
318 K, 101 kPa, x1 = 0.5	0.3407 ± 0.0092
318.15 K, 101 kPa, x2 = 0.1025	0.42 ± 0.005
318.15 K, 101 kPa, x2 = 0.2002	0.396 ± 0.004
318.15 K, 101 kPa, x2 = 0.2919	0.371 ± 0.004
318.15 K, 101 kPa, x2 = 0.4003	0.352 ± 0.004
318.15 K, 101 kPa, x2 = 0.5192	0.338 ± 0.004
318.15 K, 101 kPa, x2 = 0.6209	0.33 ± 0.004
318.15 K, 101 kPa, x2 = 0.7084	0.325 ± 0.004
318.15 K, 101 kPa, x2 = 0.7893	0.319 ± 0.004
318.15 K, 101 kPa, x2 = 0.9165	0.318 ± 0.004
323.15 K, 101 kPa, x1 = 0.6	0.342 ± 0.0092

ClC(Cl)=C(Cl)Cl + Clc1ccccc1
303.15 K, 101 kPa
Details	viscosity [mPa·s]
x1 = 0.1416	0.716 ± 0.017
x1 = 0.2048	0.717 ± 0.016
x1 = 0.2727	0.718 ± 0.015
x1 = 0.3562	0.72 ± 0.014
x1 = 0.4651	0.728 ± 0.013
x1 = 0.5412	0.739 ± 0.012
x1 = 0.6279	0.751 ± 0.011
x1 = 0.718	0.766 ± 0.01
x1 = 0.8422	0.786 ± 0.009
x1 = 0.9302	0.802 ± 0.008

C=COCCCC + CCOC(=O)c1ccccc1
viscosity [mPa·s], 101 kPa
Details	x2 = 0.0939	x2 = 0.1857	x2 = 0.2804	x2 = 0.3768	x2 = 0.4748	x2 = 0.557	x2 = 0.6781	x2 = 0.7812	x2 = 0.8898
303.15 K	0.438 ± 0.017	0.499 ± 0.017	0.573 ± 0.018	0.663 ± 0.018	0.769 ± 0.019	0.877 ± 0.019	1.061 ± 0.02	1.25 ± 0.021	1.482 ± 0.023
308.15 K	0.425 ± 0.017	0.482 ± 0.017	0.55 ± 0.017	0.633 ± 0.018	0.729 ± 0.018	0.827 ± 0.019	0.995 ± 0.02	1.163 ± 0.021	1.372 ± 0.022
313.15 K	0.404 ± 0.017	0.458 ± 0.017	0.519 ± 0.017	0.592 ± 0.018	0.678 ± 0.018	0.762 ± 0.018	0.907 ± 0.019	1.054 ± 0.02	1.231 ± 0.021

c1ccccc1 + CC#N
101 kPa
Details	viscosity [mPa·s]
298.15 K, x2 = 0.0325	0.5825 ± 0.007
298.15 K, x2 = 0.0341	0.58 ± 0.007
298.15 K, x2 = 0.0416	0.5745 ± 0.0069
298.15 K, x2 = 0.0854	0.574 ± 0.0069
298.15 K, x2 = 0.142	0.5155 ± 0.0063
298.15 K, x2 = 0.2097	0.493 ± 0.006
298.15 K, x2 = 0.2578	0.4835 ± 0.0059
298.15 K, x2 = 0.3076	0.479 ± 0.0059
298.15 K, x2 = 0.3588	0.459 ± 0.0056
298.15 K, x2 = 0.4192	0.4365 ± 0.0054
298.15 K, x2 = 0.4751	0.4295 ± 0.0053
298.15 K, x2 = 0.5205	0.4045 ± 0.005
298.15 K, x2 = 0.5786	0.394 ± 0.0049
298.15 K, x2 = 0.6344	0.388 ± 0.0048
298.15 K, x2 = 0.6908	0.375 ± 0.0047
298.15 K, x2 = 0.7377	0.379 ± 0.0047
298.15 K, x2 = 0.7901	0.369 ± 0.0047
298.15 K, x2 = 0.7943	0.3555 ± 0.0045
298.15 K, x2 = 0.8416	0.3535 ± 0.0044
298.15 K, x2 = 0.8962	0.3455 ± 0.0044
298.15 K, x2 = 0.9472	0.3275 ± 0.0041
308.15 K, x1 = 0.1018	0.3278 ± 0.0078
308.15 K, x1 = 0.2042	0.3407 ± 0.008
308.15 K, x1 = 0.303	0.3576 ± 0.0082
308.15 K, x1 = 0.4008	0.378 ± 0.0086
308.15 K, x1 = 0.4892	0.3939 ± 0.0088
308.15 K, x1 = 0.5921	0.4163 ± 0.0091
308.15 K, x1 = 0.6906	0.4413 ± 0.0095
308.15 K, x1 = 0.8017	0.4762 ± 0.01
308.15 K, x1 = 0.8951	0.4954 ± 0.01

CC(=O)OC1CCCCC1 + CCCCCCCCCCO
viscosity [mPa·s], 101 kPa
Details	300 K	310 K	320 K
x2 = 0.0746	2.01 ± 0.03	1.65 ± 0.03	1.38 ± 0.02
x2 = 0.1275	2.11 ± 0.03	1.72 ± 0.03	1.43 ± 0.02
x2 = 0.184	2.26 ± 0.03	1.82 ± 0.03	1.51 ± 0.02
x2 = 0.2015	2.3 ± 0.03	1.86 ± 0.03	1.55 ± 0.02
x2 = 0.2425	2.42 ± 0.04	1.95 ± 0.03	1.6 ± 0.02
x2 = 0.2741	2.54 ± 0.04	2.03 ± 0.03	1.66 ± 0.02
x2 = 0.4169	3.15 ± 0.04	2.47 ± 0.03	1.98 ± 0.03
x2 = 0.4886	3.61 ± 0.05	2.81 ± 0.04	2.23 ± 0.03
x2 = 0.6055	4.41 ± 0.06	3.35 ± 0.04	2.62 ± 0.03
x2 = 0.6993	5.27 ± 0.07	3.95 ± 0.05	3.04 ± 0.04
x2 = 0.8435	7.56 ± 0.09	5.49 ± 0.07	4.1 ± 0.05
x2 = 0.8806	8.17 ± 0.1	5.85 ± 0.07	4.37 ± 0.05

ClC(Cl)=C(Cl)Cl + CC(C)CO
303.15 K, 101.33 kPa
Details	viscosity [mPa·s]
x1 = 0.1124	2.28 ± 0.014
x1 = 0.2157	1.855 ± 0.012
x1 = 0.3156	1.552 ± 0.01
x1 = 0.4057	1.353 ± 0.009
x1 = 0.5099	1.182 ± 0.008
x1 = 0.5996	1.077 ± 0.007
x1 = 0.7145	0.977 ± 0.007
x1 = 0.8032	0.918 ± 0.006
x1 = 0.908	0.857 ± 0.006

O=[N+]([O-])c1ccccc1 + CC(=O)O
viscosity [mPa·s], 101 kPa
Details	x2 = 0.165	x2 = 0.3078	x2 = 0.4326	x2 = 0.5425	x2 = 0.6402	x2 = 0.7274	x2 = 0.8059	x2 = 0.8768	x2 = 0.9412
298.15 K	1.731 ± 0.013	1.662 ± 0.013	1.602 ± 0.012	1.546 ± 0.012	1.488 ± 0.011	1.428 ± 0.011	1.365 ± 0.011	1.3 ± 0.01	1.232 ± 0.0096
308.15 K	1.48 ± 0.011	1.453 ± 0.011	1.407 ± 0.011	1.35 ± 0.01	1.288 ± 0.01	1.224 ± 0.0096	1.159 ± 0.0091	1.095 ± 0.0086	1.033 ± 0.0082
318.15 K	1.314 ± 0.01	1.365 ± 0.011	1.353 ± 0.01	1.306 ± 0.01	1.24 ± 0.0097	1.164 ± 0.0091	1.085 ± 0.0086	1.006 ± 0.008	0.9289 ± 0.0074
